Some results are limits rather than exact numbers.

Data set [1] relates to TNFα-stimulated HUVEC monolayers. Kind of data set: Laminar flow assay: neutrophil capture by TNFα-stimulated HUVEC monolayers. The data set is classed as cell-based, human. To be noted: wall shear rate 200 s^−1; IC87114 2 μM, LY294002 10 μM, Bay 11-7082 10 μM, CL3 50 μg/ml. As for the experimental part: Peripheral blood neutrophils were isolated from healthy volunteers and infused over the endothelial cell monolayer that was incorporated into a parallel plate flow chamber (GlycoTech) for 5 min at a shear rate of 200 s^−1. (Puri et al., Blood, 103:3448-3456 (2004)) Approval was obtained from the Washington University institutional review board for these studies. Informed consent was provided according to the Declaration of Helsinki. Neutrophil-endothelial cell interactions were recorded and analyzed as previously described. (Puri et al., Blood, 103:3448-3456 (2004)) For E-selectin blockade, HUVECs were incubated with mAb CL3 (50 μg/ml, 15 min) prior to adhesion assays.

The next data set concerns E-selectin. Kind of data set: Flow cytometric analysis of E-selectin expression on TNFα-stimulated HUVECs. The note with it: TNFα 4 hr; IC87114 2 to 50 μM, LY294002 10 μM, Bay 11-7082 10 μM. In general terms: Flow cytometry measures light scatter and fluorescence of single cells or particles in a stream.
Data set [2] has as its target T1, p110δ (Mus musculus, UniProt O35904).
T1 construct: this enzyme isolated from spleen extracts of WT animals; from tissue; host or cells: mouse spleen
Description: Immunoprecipitation and PI3K activity assay: p110δ from spleen extracts of WT mice. To be noted: 10 μM; vs vehicle control. The data set is classed as biochemical.
Description: Spleens from WT mice were pulverized in liquid nitrogen cooled mortar and solubilized in PI3-kinase lysis buffer (50 mM Tris-HCl (pH 7.4), 1% Triton X-100, 150 mM NaCl, 1 mM EDTA and a cocktail of inhibitors to serine and cysteine proteases (Complete™, Mini, Roch Applied Science, IN). HUVEC lysates were prepared as described. (Puri et al., Blood, 103:3448-3456 (2004)) Lysates were precleared with protein A-Sepharose and aliquots of the supernatants were incubated with antibodies specific for p110δ and p110γ, or control antibody for 1 hour at 4° C., followed by addition of protein A-Sepharose for 2 hours at 4° C. Precipitates were washed once with lysis buffer, twice with 0.1 M Tris-HCl, pH 7.4; 5 mM LiCl; and 0.1 mM sodium orthovanadate and once with PI 3-kinase buffer containing 20 mM Hepes, pH 7.4, 10 μM ATP, 5 mM MgCl2, plus 50 μg/ml horse IgG (Pierce, Rockford, Ill.). Lipid kinase activity was determined as previously described. (Sadhu et al., J. Immunol., 170:2647-2654 (2003)) The radioactive product PIP3 was captured onto a 96-well polyvinylidene difluoride filter plate (Millipore, Billerica, Mass.) and the bound radioactivity was quantitated with Microbeta Liquid Scintillation Counter (PerkinElmer Life Sciences, Boston, Mass.).

In data set [3] the target is p110δ (Homo sapiens, UniProt O00329). To be noted: cited from earlier work.
Data set [4] in a line: Plasma concentration of the compound after oral administration. It counts as in vivo, mice. To be noted: 4 h post-oral administration; P-selectin−/− mice. On the procedure: Animals received a single oral dose of either a compound in accordance with the invention (25 mg/kg for mice and 20 or 40 mg/kg for rats) or vehicle (PEG-400). Blood samples were subsequently drawn at indicated time points and plasma concentration of the compound determined after liquid-liquid extraction by LC/MS. The lower quantification limit was 50 ng/ml. Plasma samples from control animals (vehicle alone) were used as the blank control.

In data set [5] the test system is neutrophils on inflamed venular endothelium (E-selectin-dependent adhesion). Description: Intravital microscopy of TNFα-stimulated cremaster muscle venules, P-selectin−/− mice. It counts as in vivo. To be noted: oral, one hour prior to TNFα-stimulation, vs vehicle. As for the experimental part: The surgical preparation of animals for all in vivo studies was performed using standard techniques. (Puri et al., Blood, 103:3448-3456 (2004)) An inflammatory response in the cremaster muscle (CM) venules of mice was induced by an intrascrotal injection of recombinant murine TNFα (20 ng/mouse). The tissue was surgically exposed 3 h post-cytokine stimulation and viewed on an intravital microscope (IV-500; Mikron instruments). GFP-expressing cells were visualized in the microcirculation through X^60 water immersion objective (Zeiss) using an intensified camera (VE1000SIT; Dage mti) and epifluorescence illumination. Rolling fraction was defined as the percentage of cells that interact with a given region of venule as compared to the total number of cells that enter that vessel (interacting and non-interacting) during the same time period. Venular shear rates were determined from optical Doppler velocimeter measurements of centerline erythrocyte velocity. Video images were recorded using a Hi8 VCR (Sony) and analysis of performed using a PC-based image analysis system.
Although P-selectin expressed on endothelium predominates in the initial capture of circulating neutrophils in acute tissue injury, it is E-selectin that accounts for the phenotypically slow rolling movements of these cells in microvessels of TNFα-stimulated CM. […]

p110δ (Homo sapiens, UniProt O00329), sequence (O00329 whole entry, species assumed): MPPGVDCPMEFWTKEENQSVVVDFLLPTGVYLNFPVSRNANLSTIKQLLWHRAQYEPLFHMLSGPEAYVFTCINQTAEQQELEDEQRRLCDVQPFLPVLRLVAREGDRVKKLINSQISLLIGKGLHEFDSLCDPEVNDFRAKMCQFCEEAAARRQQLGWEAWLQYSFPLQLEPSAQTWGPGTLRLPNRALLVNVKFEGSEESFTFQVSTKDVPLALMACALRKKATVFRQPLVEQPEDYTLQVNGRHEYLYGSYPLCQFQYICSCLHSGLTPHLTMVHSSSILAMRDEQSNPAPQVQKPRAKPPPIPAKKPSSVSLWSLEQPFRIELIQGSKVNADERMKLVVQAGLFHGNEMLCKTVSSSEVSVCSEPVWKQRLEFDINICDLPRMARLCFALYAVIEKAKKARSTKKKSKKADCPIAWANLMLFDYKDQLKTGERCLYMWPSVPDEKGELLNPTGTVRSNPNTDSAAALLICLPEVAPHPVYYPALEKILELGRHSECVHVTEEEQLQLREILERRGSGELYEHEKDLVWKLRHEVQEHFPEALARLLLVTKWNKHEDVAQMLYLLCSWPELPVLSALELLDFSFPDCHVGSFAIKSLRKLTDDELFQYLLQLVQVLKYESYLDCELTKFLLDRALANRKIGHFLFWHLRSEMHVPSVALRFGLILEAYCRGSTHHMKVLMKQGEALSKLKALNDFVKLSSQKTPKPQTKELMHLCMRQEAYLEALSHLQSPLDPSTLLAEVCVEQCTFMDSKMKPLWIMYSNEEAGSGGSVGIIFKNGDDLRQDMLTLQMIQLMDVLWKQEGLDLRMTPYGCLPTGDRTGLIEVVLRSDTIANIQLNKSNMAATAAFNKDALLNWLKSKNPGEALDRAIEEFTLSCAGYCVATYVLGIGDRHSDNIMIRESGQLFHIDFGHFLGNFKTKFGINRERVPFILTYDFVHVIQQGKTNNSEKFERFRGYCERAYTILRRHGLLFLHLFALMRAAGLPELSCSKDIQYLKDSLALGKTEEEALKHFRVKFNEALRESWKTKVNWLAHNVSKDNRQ
p110δ (Homo sapiens, UniProt O00329), sequence (P27986 whole entry partner, species assumed): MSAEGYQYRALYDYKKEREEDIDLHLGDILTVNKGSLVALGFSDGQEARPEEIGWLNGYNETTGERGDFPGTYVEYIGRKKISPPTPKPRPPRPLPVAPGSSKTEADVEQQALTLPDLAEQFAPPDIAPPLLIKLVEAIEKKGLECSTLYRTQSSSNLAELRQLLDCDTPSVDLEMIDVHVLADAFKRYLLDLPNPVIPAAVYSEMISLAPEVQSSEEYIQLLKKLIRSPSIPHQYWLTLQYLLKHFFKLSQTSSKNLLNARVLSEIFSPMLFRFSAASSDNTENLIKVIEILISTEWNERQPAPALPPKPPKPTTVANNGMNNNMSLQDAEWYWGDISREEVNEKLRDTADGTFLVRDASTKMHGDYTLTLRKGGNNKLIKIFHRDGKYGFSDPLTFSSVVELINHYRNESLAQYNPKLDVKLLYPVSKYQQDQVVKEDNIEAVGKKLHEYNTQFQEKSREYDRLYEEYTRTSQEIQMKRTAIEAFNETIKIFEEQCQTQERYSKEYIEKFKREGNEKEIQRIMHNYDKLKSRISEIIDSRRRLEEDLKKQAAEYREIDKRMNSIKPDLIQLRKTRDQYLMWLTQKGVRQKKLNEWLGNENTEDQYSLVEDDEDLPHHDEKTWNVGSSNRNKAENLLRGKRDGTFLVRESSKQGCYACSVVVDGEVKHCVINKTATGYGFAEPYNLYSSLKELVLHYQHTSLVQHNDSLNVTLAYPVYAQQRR
T1 sequence (O35904 whole entry): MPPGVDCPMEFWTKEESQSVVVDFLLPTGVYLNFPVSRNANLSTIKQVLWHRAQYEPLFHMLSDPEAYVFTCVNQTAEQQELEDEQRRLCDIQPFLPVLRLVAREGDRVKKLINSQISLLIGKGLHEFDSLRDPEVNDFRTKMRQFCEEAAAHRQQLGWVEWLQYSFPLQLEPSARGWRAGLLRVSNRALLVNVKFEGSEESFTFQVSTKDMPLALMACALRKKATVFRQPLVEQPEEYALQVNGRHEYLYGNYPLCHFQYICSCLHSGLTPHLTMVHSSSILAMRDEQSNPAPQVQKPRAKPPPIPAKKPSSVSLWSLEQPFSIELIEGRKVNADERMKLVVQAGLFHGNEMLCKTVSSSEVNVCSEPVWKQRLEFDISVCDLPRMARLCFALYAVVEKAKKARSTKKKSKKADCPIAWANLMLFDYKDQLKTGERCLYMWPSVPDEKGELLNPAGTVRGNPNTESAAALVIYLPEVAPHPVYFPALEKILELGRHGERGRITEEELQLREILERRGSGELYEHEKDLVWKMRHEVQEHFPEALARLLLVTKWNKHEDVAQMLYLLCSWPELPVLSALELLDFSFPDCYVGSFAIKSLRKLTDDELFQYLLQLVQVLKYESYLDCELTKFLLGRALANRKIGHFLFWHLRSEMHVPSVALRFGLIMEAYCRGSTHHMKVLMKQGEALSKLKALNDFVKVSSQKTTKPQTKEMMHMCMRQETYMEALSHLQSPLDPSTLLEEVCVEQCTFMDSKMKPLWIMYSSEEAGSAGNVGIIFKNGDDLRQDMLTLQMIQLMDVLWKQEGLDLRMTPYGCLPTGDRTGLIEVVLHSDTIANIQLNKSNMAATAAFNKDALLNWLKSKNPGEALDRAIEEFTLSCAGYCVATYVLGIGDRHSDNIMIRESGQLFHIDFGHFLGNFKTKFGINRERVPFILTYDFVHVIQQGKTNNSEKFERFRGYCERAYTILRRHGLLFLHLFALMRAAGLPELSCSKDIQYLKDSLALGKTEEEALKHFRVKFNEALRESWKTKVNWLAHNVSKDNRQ
T1 sequence (P26450 whole entry partner): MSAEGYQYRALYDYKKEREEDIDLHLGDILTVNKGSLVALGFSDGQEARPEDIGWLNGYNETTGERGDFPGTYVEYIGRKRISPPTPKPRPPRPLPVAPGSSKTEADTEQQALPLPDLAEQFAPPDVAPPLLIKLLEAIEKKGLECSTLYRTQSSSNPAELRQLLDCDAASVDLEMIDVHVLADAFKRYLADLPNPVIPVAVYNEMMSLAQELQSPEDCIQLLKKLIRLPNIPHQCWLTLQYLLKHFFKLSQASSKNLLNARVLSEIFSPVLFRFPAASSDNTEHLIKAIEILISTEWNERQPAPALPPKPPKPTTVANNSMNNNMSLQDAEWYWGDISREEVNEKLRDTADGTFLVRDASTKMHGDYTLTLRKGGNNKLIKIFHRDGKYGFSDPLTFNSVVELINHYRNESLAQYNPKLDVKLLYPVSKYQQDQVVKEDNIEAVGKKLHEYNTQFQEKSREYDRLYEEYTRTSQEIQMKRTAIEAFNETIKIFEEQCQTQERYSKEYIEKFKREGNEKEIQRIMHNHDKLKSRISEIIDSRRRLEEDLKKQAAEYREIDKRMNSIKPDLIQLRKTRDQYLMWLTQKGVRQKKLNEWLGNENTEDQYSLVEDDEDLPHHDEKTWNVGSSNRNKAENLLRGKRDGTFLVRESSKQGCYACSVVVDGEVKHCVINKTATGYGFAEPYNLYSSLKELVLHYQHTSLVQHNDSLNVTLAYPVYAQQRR

As for `Cc1ccc(S(=O)(=O)/C=C/C#N)cc1` [Bay 11-7082], the “reduction of capture/attachment of untreated neutrophils” value in data set [1] stood at 100%. Moreover, the “TNFα-induced expression of E-selectin” value with E-selectin is recorded as “abrogated”.

`Cc1ccccc1-n1c(Cn2cnc3c(N)ncnc32)nc2cccc(C)c2c1=O` [IC87114]: on p110δ [2], the “reduction of PIP3 production by immuno-precipitated p110δ” value is on record as more than 90%. Moreover, the “inhibition of delta activity” value at p110δ [3] (10 μM) is on record as more than 95%. Also, the “inhibition of p110δ activity at the mean plasma level” value on p110δ [3] (4.9±2.7 μM, Sadhu et al.) is listed as more than 85%. Moreover, the “mean plasma level of the compound” value in data set [4] was 4.9 ± 2.7 µM. Also, in data set [5], the “reduction in neutrophil attachment to and rolling on inflamed venular endothelium” value is more than 88%.

The values above are taken from patent publication US20080287469A1, “Phosphoinositide 3-Kinase Inhibitors for Inhibiting Leukocyte Accumulation” (priority 2005, published 2008).
